From patent US10202389B2, “Pyrazolopyrimidinyl inhibitors of ubiquitin-activating enzyme” (Millennium Pharmaceuticals, Inc., priority 2012, dated 2019)

These compounds were tested against recombinant human UAE (Homo sapiens (Human), UniProt P22314) (assay: Ubiquitin Activating Enzyme (UAE) HTRF Assay). Conditions: read-out: % inhibition @0.111 μM.
recombinant human UAE, sequence (P22314 whole entry): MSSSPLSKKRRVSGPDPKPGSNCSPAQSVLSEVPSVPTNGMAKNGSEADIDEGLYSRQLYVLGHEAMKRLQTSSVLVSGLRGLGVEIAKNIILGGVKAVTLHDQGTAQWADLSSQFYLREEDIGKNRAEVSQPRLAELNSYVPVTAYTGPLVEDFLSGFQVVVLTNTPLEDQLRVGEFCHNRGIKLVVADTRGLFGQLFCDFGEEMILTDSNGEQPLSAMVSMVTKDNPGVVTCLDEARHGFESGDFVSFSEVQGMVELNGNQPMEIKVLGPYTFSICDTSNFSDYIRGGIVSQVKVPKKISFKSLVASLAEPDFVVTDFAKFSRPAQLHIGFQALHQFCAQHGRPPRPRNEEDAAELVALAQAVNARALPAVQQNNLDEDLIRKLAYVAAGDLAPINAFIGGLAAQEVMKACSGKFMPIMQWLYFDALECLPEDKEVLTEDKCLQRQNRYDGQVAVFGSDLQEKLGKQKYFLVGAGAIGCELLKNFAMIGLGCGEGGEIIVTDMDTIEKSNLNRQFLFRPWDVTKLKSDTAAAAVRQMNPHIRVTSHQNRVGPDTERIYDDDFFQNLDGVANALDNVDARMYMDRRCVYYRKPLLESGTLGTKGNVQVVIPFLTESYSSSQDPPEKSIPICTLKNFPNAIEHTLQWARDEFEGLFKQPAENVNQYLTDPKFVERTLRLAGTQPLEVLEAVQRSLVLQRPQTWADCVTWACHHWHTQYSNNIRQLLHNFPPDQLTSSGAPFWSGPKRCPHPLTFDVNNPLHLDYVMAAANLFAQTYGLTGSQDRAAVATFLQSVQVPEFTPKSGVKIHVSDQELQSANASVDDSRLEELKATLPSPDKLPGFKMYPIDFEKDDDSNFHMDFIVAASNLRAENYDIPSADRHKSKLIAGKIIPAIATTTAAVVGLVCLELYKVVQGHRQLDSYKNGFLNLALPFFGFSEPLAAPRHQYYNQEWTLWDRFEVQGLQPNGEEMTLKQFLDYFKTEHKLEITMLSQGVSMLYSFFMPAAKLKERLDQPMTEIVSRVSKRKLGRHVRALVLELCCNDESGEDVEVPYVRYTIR
Experimental: (§1) After incubation for 120 minutes, quantification of the FRET is performed on the Pherostar (BMG).
(§2) For compounds whose values are marked with an asterisk (*), mouse UAE was used. For all other compounds, human UAE was used.

Row | Compound | inhibition at 0.111 µM [%]
1 | CC(C)Oc1ccc2ccccc2c1-c1cc2nccc(N[C@@H]3C[C@H](COS(N)(=O)=O)[C@@H](O)[C@H]3O)n2n1 [Compound I-109, (s.e.)-((1R,2R,3S,4R)-2,3-dihydroxy-4-(2-(2-isopropoxynaphthalen-1-yl)pyrazolo[1,5-a]pyrimidin-7-ylamino)cyclopentyl)methyl sulfamate] | 100
2 | Cc1cnc2cc(-c3ccccc3)nn2c1N[C@@H]1C[C@H](COS(N)(=O)=O)[C@@H](O)[C@H]1O (relative stereo) [Compound I-089, (rac)-{(1R,2R,3S,4R)-2,3-dihydroxy-4-[(6-methyl-2-phenylpyrazolo[1,5-a]pyrimidin-7-yl)amino]cyclopentyl}methyl rel-sulfamate] | 27
3 | COc1ccc(C(F)(F)F)cc1-c1cc2nccc(N[C@@H]3C[C@H](COS(N)(=O)=O)[C@@H](O)[C@H]3O)n2n1 (relative stereo) [Compound I-065, (rac)-((1R,2R,3S,4R)-2,3-Dihydroxy-4-((2-(2-methoxy-5-(trifluoromethyl)phenyl)-pyrazolo[1,5-a]pyrimidin-7-yl)amino)cyclopentyl)methyl rel-sulfamate] | 100
4 | NS(=O)(=O)OC[C@H]1C[C@@H](Nc2ccnc3cc(-c4cccc(Oc5ccccc5)c4)nn23)[C@H](O)[C@@H]1O (relative stereo) [Compound I-051, (rac)-((1R,2R,3S,4R)-2,3-Dihydroxy-4-((2-(3-phenoxyphenyl)pyrazolo[1,5-a]pyrimidin-7-yl)amino)cyclopentyl)methyl rel-sulfamate] | 90
5 | NS(=O)(=O)OC[C@H]1C[C@@H](Nc2ccnc3cc(-c4ccc(OC(F)F)c5ccccc45)nn23)[C@H](O)[C@@H]1O [Compound I-112, (s.e.)-((1R,2R,3S,4R)-4-(2-(4-(difluoromethoxy)naphthalen-1-yl)pyrazolo[1,5-a]pyrimidin-7-ylamino)-2,3-dihydroxycyclopentyl)methyl sulfamate] | 100
6 | CC1(C)OCc2ccc(-c3cc4nccc(N[C@@H]5C[C@H](COS(N)(=O)=O)[C@@H](O)[C@H]5O)n4n3)cc21 (relative stereo) [Compound I-053, (rac)-((1R,2R,3S,4R)-4-(2-(3,3-dimethyl-1,3-dihydroisobenzofuran-5-yl)pyrazolo[1,5-a]pyrimidin-7-ylamino)-2,3-dihydroxycyclopentyl)methyl rel-sulfamate] | 100
7 | NS(=O)(=O)OC[C@H]1C[C@@H](Nc2ccnc3cc(-c4cccc(OC(F)F)c4)nn23)[C@H](O)[C@@H]1O (relative stereo) [Compound I-050, (rac)-((1R,2R,3S,4R)-4-((2-(3-(Difluoromethoxy)phenyl)pyrazolo[1,5-a]pyrimidin-7-yl)amino)-2,3-dihydroxycyclopentyl)methyl rel-sulfamate] | 100
8 | C[Si](C)(C)c1cccc(-c2cc3nccc(N[C@@H]4C[C@H](COS(N)(=O)=O)[C@@H](O)[C@H]4O)n3n2)c1 (relative stereo) [Compound I-035, (rac)-((1R,2R,3S,4R)-2,3-dihydroxy-4-(2-(3-(trimethylsilyl)phenyl)pyrazolo[1,5-a]pyrimidin-7-ylamino)cyclopentyl)methyl rel-sulfamate] | 100
9 | NS(=O)(=O)OC[C@H]1C[C@@H](Nc2ccnc3cc(-c4ccc5c(c4)oc4ccccc45)nn23)[C@H](O)[C@@H]1O (relative stereo) [Compound I-093, (rac)-((1R,2R,3S,4R)-4-(2-(dibenzo[b,d]furan-3-yl)pyrazolo[1,5-a]pyrimidin-7-ylamino)-2,3-dihydroxycyclopentyl)methyl rel-sulfamate] | 100

Further lines, results first:

Row | inhibition at 0.111 µM [%] | Compound
10 | 100 | NS(=O)(=O)OC[C@H]1C[C@@H](Nc2ccnc3cc(-c4cccc5[nH]ccc45)nn23)[C@H](O)[C@@H]1O (relative stereo) [Compound I-075, (rac)-((1R,2R,3S,4R)-4-(2-(1H-indol-4-yl)pyrazolo[1,5-a]pyrimidin-7-ylamino)-2,3-dihydroxycyclopentyl)methyl rel-sulfamate]
11 | 100 | NS(=O)(=O)OC[C@H]1C[C@@H](Nc2ccnc3cc(-c4cccc5sccc45)nn23)[C@H](O)[C@@H]1O (relative stereo) [Compound I-061, (rac)-((1R,2R,3S,4R)-4-((2-(Benzo[b]thiophen-4-yl)pyrazolo[1,5-a]pyrimidin-7-yl)amino)-2,3-dihydroxycyclopentyl)methyl rel-sulfamate]
12 | 100 | NS(=O)(=O)OC[C@H]1C[C@@H](Nc2ccnc3cc(-c4csc5ccc(F)cc45)nn23)[C@H](O)[C@@H]1O (relative stereo) [Compound I-081, (rac)-((1R,2R,3S,4R)-4-(2-(5-fluorobenzo[b]thiophen-3-yl)pyrazolo[1,5-a]pyrimidin-7-ylamino)-2,3-dihydroxycyclopentyl)methyl rel-sulfamate]
13 | 84 | NS(=O)(=O)OC[C@H]1C[C@@H](Nc2ccnc3cc(-c4ccc(Cl)cc4Cl)nn23)[C@H](O)[C@@H]1O (relative stereo) [Compound I-013, (rac)-[(1R,2R,3S,4R)-4-{[2-(2,4-dichlorophenyl)pyrazolo[1,5-a]pyrimidin-7-yl]amino}-2,3-dihydroxycyclopentyl]methyl rel-sulfamate]
14 | 100 | CN(C)c1ccc(-c2cc3nccc(N[C@@H]4C[C@H](COS(N)(=O)=O)[C@@H](O)[C@H]4O)n3n2)c2ccccc12 [Compound I-107, (s.e.)-((1R,2R,3S,4R)-4-(2-(4-(dimethylamino)naphthalen-1-yl)pyrazolo[1,5-a]pyrimidin-7-ylamino)-2,3-dihydroxycyclopentyl)methyl sulfamate]

The compounds below were run against mouse UAE (Mus musculus (Mouse), UniProt Q02053) (assay: Ubiquitin Activating Enzyme (UAE) HTRF Assay). Conditions: read-out: % inhibition @0.111 μM.
mouse UAE, sequence (Q02053 whole entry): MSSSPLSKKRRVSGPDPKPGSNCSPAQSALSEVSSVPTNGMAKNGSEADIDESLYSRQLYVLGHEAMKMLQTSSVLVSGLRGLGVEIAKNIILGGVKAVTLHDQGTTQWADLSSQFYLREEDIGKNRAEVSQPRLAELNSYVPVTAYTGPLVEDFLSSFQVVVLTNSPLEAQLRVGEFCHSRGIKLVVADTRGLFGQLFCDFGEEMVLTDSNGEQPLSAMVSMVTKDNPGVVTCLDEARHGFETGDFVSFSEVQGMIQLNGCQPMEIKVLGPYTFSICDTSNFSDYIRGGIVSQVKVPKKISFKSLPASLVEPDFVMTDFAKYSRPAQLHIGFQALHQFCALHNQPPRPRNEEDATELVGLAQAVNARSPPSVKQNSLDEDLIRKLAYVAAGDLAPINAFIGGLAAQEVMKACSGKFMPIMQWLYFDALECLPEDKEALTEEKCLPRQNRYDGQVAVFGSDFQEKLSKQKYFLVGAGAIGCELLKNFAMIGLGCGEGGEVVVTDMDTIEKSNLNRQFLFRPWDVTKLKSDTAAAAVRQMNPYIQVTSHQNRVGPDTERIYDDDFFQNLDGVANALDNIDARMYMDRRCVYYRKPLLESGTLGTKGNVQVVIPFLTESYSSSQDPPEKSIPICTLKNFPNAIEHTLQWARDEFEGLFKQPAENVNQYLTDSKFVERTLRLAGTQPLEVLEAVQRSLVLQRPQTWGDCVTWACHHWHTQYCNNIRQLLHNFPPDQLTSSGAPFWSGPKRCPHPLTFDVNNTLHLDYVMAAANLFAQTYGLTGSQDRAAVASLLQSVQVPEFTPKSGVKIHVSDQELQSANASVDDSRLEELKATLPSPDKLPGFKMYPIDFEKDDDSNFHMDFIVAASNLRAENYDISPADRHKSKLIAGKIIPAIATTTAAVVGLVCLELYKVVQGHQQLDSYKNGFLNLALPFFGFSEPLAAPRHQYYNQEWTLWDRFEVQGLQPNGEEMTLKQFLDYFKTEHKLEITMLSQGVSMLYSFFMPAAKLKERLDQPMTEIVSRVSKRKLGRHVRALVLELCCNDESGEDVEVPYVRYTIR
Experimental: as §1, §2

Row | Compound | inhibition at 0.111 µM [%]
15 | NS(=O)(=O)OC[C@H]1C[C@@H](Nc2ccnc3cc(-c4ccccn4)nn23)[C@H](O)[C@@H]1O (relative stereo) [Compound I-012, (rac)-[(1R,2R,3S,4R)-2,3-dihydroxy-4-{[2-(pyridin-2-yl)pyrazolo[1,5-a]pyrimidin-7-yl]amino}cyclopentyl]methyl rel-sulfamate] | 61
16 | NS(=O)(=O)OC[C@H]1C[C@@H](Nc2cc(Cl)nc3cc(-c4ccccn4)nn23)[C@H](O)[C@@H]1O (relative stereo) [Compound I-011, (rac)-((1R,2R,3S,4R)-4-(5-chloro-2-(pyridin-2-yl)pyrazolo[1,5-a]pyrimidin-7-ylamino)-2,3-dihydroxycyclopentyl)methyl rel-sulfamate] | 49

More lines, now with the values ahead:

Row | inhibition at 0.111 µM [%] | Compound
17 | 100 | NS(=O)(=O)OC[C@H]1C[C@@H](Nc2ccnc3cc(-c4cccc(Cl)c4)nn23)[C@H](O)[C@@H]1O (relative stereo) [Compound I-005, (rac)-((1R,2R,3S,4R)-4-((2-(3-Chlorophenyl)pyrazolo[1,5-a]pyrimidin-7-yl)amino)-2,3-dihydroxycyclopentyl)methyl rel-sulfamate]
18 | 100 | NS(=O)(=O)OC[C@H]1C[C@@H](Nc2ccnc3cc(-c4csc5cc(Cl)ccc45)nn23)[C@H](O)[C@@H]1O (relative stereo) [Compound I-091, (rac)-((1R,2R,3S,4R)-4-(2-(6-chlorobenzo[b]thiophen-3-yl)pyrazolo[1,5-a]pyrimidin-7-ylamino)-2,3-dihydroxycyclopentyl)methyl rel-sulfamate]
19 | 72 | NS(=O)(=O)OC[C@H]1C[C@@H](Nc2ccnc3cc(-c4ccccc4)nn23)[C@H](O)[C@@H]1O (relative stereo) [Compound I-001, (rac)-((1R,2R,3S,4R)-2,3-dihydroxy-4-(2-phenylpyrazolo[1,5-a]pyrimidin-7-ylamino)cyclopentyl)methyl rel-sulfamate]
20 | 100 | NS(=O)(=O)OC[C@H]1C[C@@H](Nc2ccnc3cc(-c4cccc5ccccc45)nn23)[C@H](O)[C@@H]1O (relative stereo) [Compound I-002, (rac)-((1R,2R,3S,4R)-2,3-dihydroxy-4-{[2-(1-naphthyl)pyrazolo[1,5-a]pyrimidin-7-yl]amino}cyclopentyl)methyl rel-sulfamate]
